Measured values taken from patent US9474790B2, “Stable, protracted GLP-1/glucagon receptor co-agonists for medical use” (Novo Nordisk A/S, priority 2013, dated 2016).
Numbered stars: 1 amine (or outer) side, 2 acyl side, 3 side chain; on linkers, the order of the positions; unused ones are H or OH. Square brackets hold non-standard residues; d marks the D form. Side chains are listed from the residue outwards. Peptide text beside a SMILES is read from it. * marks the point of attachment. C18 diacid = O=C(O)CCCCCCCCCCCCCCCCC(=O)*; γGlu = O=C(O)[C@H](CCC(=O)[*:2])N[*:1]; Aib = CC(C)(N)C(=O)O

Assay: Thioflavin T (ThT) fibrillation assay for physical stability
Format: physicochemical
Details: 250 μM in 10 mM HEPES buffer, pH 7.5, 37° C., shaking 960 rpm
In short: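 Fibrillation was followed by ThT (1 μM) fluorescence every 20 min, 444/485 nm, for 250 μM peptide in 10 mM HEPES pH 7.5 shaken at 960 rpm, 37° C. Lag time (t0−2τ) and apparent rate constant (1/τ) come from a sigmoidal fit. Recovery is % of initial concentration remaining soluble after centrifugation and filtration (RP-HPLC).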

THT assay Lag time (Ex. 76): 45 h
Compound: CC(C)C[C@H](NC(=O)[C@H](Cc1ccc(O)cc1)NC(=O)[C@H](CCCCN)NC(=O)[C@H](CO)NC(=O)[C@H](CC(C)C)NC(=O)[C@H](CC(=O)O)NC(=O)[C@H](CO)NC(=O)[C@@H](NC(=O)[C@H](Cc1ccccc1)NC(=O)[C@@H](NC(=O)CNC(=O)[C@H](CCC(N)=O)NC(=O)C(C)(C)NC(=O)[C@@H](N)Cc1c[nH]cn1)[C@@H](C)O)[C@@H](C)O)C(=O)N[C@@H](CCC(=O)O)C(=O)N[C@@H](CO)C(=O)N[C@@H](CCCCN)C(=O)N[C@@H](CCCNC(=N)N)C(=O)N[C@@H](C)C(=O)N[C@@H](CCCNC(=N)N)C(=O)N[C@@H](CO)C(=O)N[C@@H](Cc1ccccc1)C(=O)N[C@H](C(=O)N[C@@H](CCC(N)=O)C(=O)N[C@@H](Cc1c[nH]c2ccccc12)C(=O)N[C@@H](CC(C)C)C(=O)N[C@@H](CC(C)C)C(=O)N[C@@H](CCCCNC(=O)CC[C@H](NC(=O)CC[C@H](NC(=O)[C@H](CO)NC(=O)[C@H](CCC(=O)O)NC(=O)[C@H](CO)NC(=O)CC[C@H](NC(=O)CC[C@H](NC(=O)CCCCCCCCCCCCCCCCC(=O)O)C(=O)O)C(=O)O)C(=O)O)C(=O)O)C(=O)N[C@H](C(N)=O)[C@@H](C)O)C(C)C [Example 69, N^ε28-[(4S)-4-carboxy-4-[[(4S)-4-carboxy-4-[[(2S)-2-[[(2S)-4-carboxy-2-[[(2S)-2-[[(4S)-4-carboxy-4-[[(4S)-4-carboxy-4-(17-carboxyheptadecanoylamino)butanoyl]amino]butanoyl]amino]-3-hydroxypropanoyl]amino]butanoyl]amino]-3-hydroxypropanoyl]amino]butanoyl]amino]butanoyl]-[Aib2,Leu10,Glu15,Lys17,Arg20,Ser21,Leu27,Lys28]-Glucagon amide] (H-H[Aib]QGTFTSDLSKYLESKRARSFVQWLLK([γGlu-γGlu-Ser-Glu-Ser-γGlu-γGlu-C18 diacid])T-NH2; N-terminus assumed)
